Values of other authors as cited in publication PMC6588697, “Lugdunin amplifies innate immune responses in the skin in synergy with host- and microbiota-derived factors” (Nature Communications, 2019).

Test system: primary human neutrophils, erythrocytes, HL60
Conditions: cited from earlier work
Excerpt: Lugdunin represents the founding member of the new class of cyclic thiazolidine-containing peptide antibiotics. […] In our previous work, we have shown that lugdunin treatment led to a strong reduction and even complete eradication of viable S. aure ...

Lugdunin
lysis of primary human neutrophils, erythrocytes or HL60 (in words): did neither cause lysis
